Patent US20060122153A1, “Antineoplastic ether lipid compounds with modifications at the sn-2 carbon” (priority 2003, published 2006)
Values joined by “and” are separate entries in the source; they are usually repeats but may differ in a detail not shown here. Identical values can stand only once. “Also recorded” adds a separate entry of the source. Like-named read-outs stand apart in the source and are kept apart here.

How the values were obtained:
[1] = tested on: platelets in dog whole blood; experiment: Platelet aggregation in whole blood (Chronolog whole blood aggregometer)
Method: (§5) Briefly, whole citrated blood is diluted 1:2 with sterile saline and placed in a warm chamber with a mini stir bar. An electronic probe, measuring electrical resistance, is inserted in the sample. The aggregometer is calibrated and the baseline is observed to detect any spontaneous aggregation. The test sample is added and allowed to run for at least 6 minutes. If the sample is an agonist the platelets will start to aggregate and stick to the electronic probe causing resistance across the electrodes to increase. This resistance, in ohms, is measured 6 minutes post addition of sample. The test samples are run at 25, 100, 200, 400 and 800 uM and compared to 100 uM L-ET-18-OCH3.
(§6) Collection of Blood Sample for in vitro Platelet Aggregation Testing: Venous blood is collected in 4.5 mL Vacutainer tubes containing 0.129 M sodium citrate using a 21G needle or larger. Blood is immediately mixed by gentle inversion 15-20 times and kept at room temperature. Dilution ratio is 1 to 9 (3.8% citrate solution:blood). One (2.0 mL) Vacutainer tube containing EDTA is also collected for platelet counts. Complete blood counts (CBC) are measured on the CDC Technologies Hemavet 1500 to ensure that the test subject's platelets are within normal range. Amy vials of hemolytic blood or blood containing any clots should be discarded. Platelet aggregation testing must be completed within 3 hours of blood collection. After this time the ability of platelets to aggregate decreases.
(§7) Dilutions were prepared in PBS or saline at 40× concentration. (25 uL test sample are added to 1000 uL diluted blood (1:40)).

[2] = tested on: MCF7; experiment: In vitro growth inhibition (GI50), SRB assay; assay type: cell-based, human; details: MCF7 tumor cell line, 3 days
Description: (§1) The following cell lines were selected from the cell bank for screening and GI50 studies: MCF-7: human breast tumor, MCF-7/ADR: MCF-7 adriamycin resistant subline, HT-29: human colon carcinoma, A-549: human non-small cell lung cancer, NIH-3T3: mouse Swiss embryo fibroblast and WI-38: human lung fibroblast, SKMEL-28: human melanoma, Lewis Lung: mouse lung carcinoma, DU-145: prostate carcinoma, B16F10: mouse melanoma, L1210: murine lymphocytic leukemia, P-388: murine leukemia, U-937: human histolytic lymphoma. Except HT-29, WI-38, NIH-3T3 and Lewis Lung which were obtained from the American Type Culture Collection (Rockville, Md.) all the other cell lines were obtained from National Cancer Institute—Frederick Research Facility (Frederick, Md.). All the cell lines were grown in RPMI-1640 medium containing 10% fetal bovine serum (FBS) except WI-38 and DU-145 which were grown in EMEM+10% FBS at 37° C., 5% CO2 and 100% humidity and NIH-3T3, Lewis Lung, B16F10 and L1210 which were grown in DMEM containing 10% FBS (10% HS for L1210). All the adherent cell lines were detached from the culture flasks by addition of 2-3 ml of 0.05% trypsin-EDTA. Thereafter, trypsin was inactivated by addition of 10 mL of 10% serum-containing RPMI-1640 medium. Cells were separated into a single-cell suspension by gentle pipetting action. Depending on the cell type, 3,6000 to 10,000 cells were plated onto 96-well plates a day prior to the drug treatment, in a volume of 100 μl per well.
(§2) The test compounds were made in-house and the compounds were dissolved PBS or saline at a stock concentration of approximately 20 mM, which is 400 times the desired final maximum test concentration. The stock solutions were then diluted with complete medium to twice the desired final concentration. 100 μl aliquots of each dilution was then added to the designated wells. After 3 days of incubation, cell growth was determined.
(§3) The SRB assay was performed as described by Monks, A., Scudiero, D., Skehan, P., Shoemaker, R., Paull, K., Vistica, D., Hose, C., Langley, J., Cronise, P., and Vaigro-Wolff, A. Feasibility of a high-flux anticancer drug screen using a diverse panel of cultured human tumo-r cell lines. J Natl Cancer Inst, 83: 757-766, 1991 with minor modifications. Following drug treatment, cells were fixed with 50 μl of cold 50% (wt/vol) trichloroacetic acid (TCA) for 60 minutes at 4° C. The supernatant was discarded, and the plates were washed six times with deionized water and then air dried. The precipitate was stained with 100 μl SRB solution (0.4% wt/vol in 1% acetic acid) for 10 minutes at room temperature, and free SRB was removed by washing three times with 1% acetic acid, and the plates were then air dried. Bound SRB was solubilized with Tris buffer (10 mM), and the ODs were read using an automated plate reader (Bio-Rad, Model 3550-UV) at 490 nm. Background values were subtracted from the test data, and the data was calculated as a % of control. […] Percentage growth was calculated as described by, Peters, A. C., Ahmad, I., Janoff, A. S., Pushkareva, M. Y., and Mayhew, E. Growth Inhibitory effects of liposome-associated 1-o-octadecyl-2-o-methyl-sn-glycero-3-phosphocholine. Lipids, 32:1045-1054, 1997. The raw optical density data Was imported into an Excel spreadsheet to determine dose responses. […] By varying drug concentration,-dose response curves were generated and the GI-50 values were calculated. The GI50 values for each experiment were calculated using data obtained from three duplicate wells on two separate plates.
(§4) For growth inhibitory evaluation, we used five human tumor cell lines (U937; HT29; A549; MCF7; MCF7/ADR) and two normal fibroblast cell lines (NIH-3T3, murine; WI-38, human).

[3] = tested on: HT29; experiment: In vitro growth inhibition (GI50), SRB assay; assay type: cell-based, human; details: HT29 tumor cell line, 3 days
Description: as §1, §2, §3, §4

[4] = tested on: MCF7/ADR; experiment: In vitro growth inhibition (GI50), SRB assay; assay type: cell-based, human; details: MCF7/ADR tumor cell line, 3 days
Description: as §1, §2, §3, §4

[5] = tested on: A549; experiment: In vitro growth inhibition (GI50), SRB assay; assay type: cell-based, human; details: A549 tumor cell line, 3 days
Description: as §1, §2, §3, §4

[6] = tested on: WI38; details: WI38 normal human fibroblast cell line, 3 days
Description: as §1, §2, §3, §4

[7] = tested on: platelets in dog whole blood
Method: as §5, §6, §7

[8] = tested on: DEVDase activity (Caspase 3) in Jurkat T cells; experiment: DEVDase activity in Jurkat T cells; assay type: cell-based; details: Jurkat T cells, 6 hours
Method: Suspension cells were seeded at density 3.2×10^5 cells per mL in RPMI-1640 medium (Bio-Whittaker) supplemented with 10% heat inactivated FBS (Bio-Whittaker). Cells were pre-incubated overnight prior to treatment with the ether lipid compounds of the invention. At treatment time cell density was 5×10^5 cells per mL. Cells were incubated with the ether lipid compounds of the invention for various periods of time, usually 6 hours. Cells were collected, washed with 1×DPBS and resuspended in 110 μl of Buffer A (10 mM BEPES-KOH, pH 7.4, 2 mM EDTA, 0.1% CHAPS, 5 mM DTT, 1:100 dilution of protease inhibitors cocktail (Sigma)-DTT and protease inhibitors should be added just before use). After 10 min incubation on ice in order to lyse cells, samples were frozen on dry ice/ethanol and kept at −20° C. until analysis.
At the time of analysis of DEVDase activity frozen pellets were kept on ice until thawed and after vigorous vortexing samples were centrifuged at 14,000 rpm for 6 min.; Supernatant was transferred into another tube and 2 μl, in triplicates, were used for protein measurement using Bradford reagent (Bio-Rad).
Measurement of DEVDase activity was carried out in 100 μl volume, where 10 μg of protein was delivered in 50 μl of Buffer A and 40 μM of substrate Ac-DEVD-AMC was also delivered in 50 μl of Buffer A. All measurements were done in triplicates. Reaction was carried out for 1 hour and generation of fluorescent product of reaction (aminomethylcoumarin) was measured by reading fluorescence at 1em 460 nm (1ex 360 nm). Changes in DEVDase activity were calculated after subtraction of background fluorescence of substrate incubated without proteins, and were expressed as percent of control (DEVDase activity in untreated cells). Average of DEVDase activity, calculated from few independent experiments, was used to calculate percent of L-ether lipid-induced DEVDase activity.

[9] = tested on: NIH-3T3; experiment: In vitro growth inhibition (GI50), SRB assay, normal fibroblast; assay type: cell-based, mouse; details: NIH-3T3 normal murine fibroblast cell line, 3 days
Description: as §1, with “All the adherent cell lines were detached from the culture flasks by addition of 2-3 ml of 0.05% trypsin-EDTA. Thereafter, trypsin was inactivated by addition of 10 mL of 10% serum-containing RPMI-1640 medium. Cells were separated into a single-cell suspension by gentle pipetting action. Depending on the cell type, 3,6000 to 10,000 cells were plated onto 96-well plates a day prior to the drug treatment, in a volume of 100 μl per well.” left out
The test compounds were made in-house and the compounds were dissolved PBS or saline at a stock concentration of approximately 20 mM, which is 400 times the desired final maximum test concentration. […] After 3 days of incubation, cell growth was determined.
The SRB assay was performed as described by Monks, A., Scudiero, D., Skehan, P., Shoemaker, R., Paull, K., Vistica, D., Hose, C., Langley, J., Cronise, P., and Vaigro-Wolff, A. Feasibility of a high-flux anticancer drug screen using a diverse panel of cultured human tumo-r cell lines. […] Bound SRB was solubilized with Tris buffer (10 mM), and the ODs were read using an automated plate reader (Bio-Rad, Model 3550-UV) at 490 nm. Background values were subtracted from the test data, and the data was calculated as a % of control. […] Percentage growth was calculated as described by, Peters, A. C., Ahmad, I., Janoff, A. S., Pushkareva, M. Y., and Mayhew, E. Growth Inhibitory effects of liposome-associated 1-o-octadecyl-2-o-methyl-sn-glycero-3-phosphocholine. […]

[10] = tested on: U937; experiment: In vitro growth inhibition (GI50), cell growth assay; assay type: cell-based, human; details: U937 tumor cell line, 3 days
Method: After 3 days of incubation, cell growth was determined.
To determine the Growth Inhibition in the suspension cell lines, cell numbers were directly counted instead of using the SRB assay which determines the total cell protein. One day prior to the drug treatment, 40,000 cells per well were seeded into 24-well plates in a volume of 0.5 mL. Stock solutions were diluted with complete medium to twice the desired final concentrations, and then 0.5 mL aliquots of each dilution were added to the designated wells. After 3 days incubation, cell growth was determined by counting cell number using a coulter counter (Z-M, coulter). Cell counts were-also taken at time 0 and subtracted from the test results to give net growth.

[11] = tested on: whole human blood; experiment: Hemolysis assay with whole human blood
Method: Venous blood was collected in 10 mL Vacutainer tubes containing EDTA using a 21G needle or larger.
Stock solutions of 20 mM test sample in phosphate buffered saline (PBS) were prepared as follows:
Then 270 uL of whole blood was aliquotted in duplicate mini test tubes using positive displacement pipet. Next, 30 uL of each working stock solution, in duplicate, was added to the whole blood. Next, 30 uL of PBS was added for background control. The samples were capped or sealed with Parafilm and gently mixed. The blood was incubated at 37° C. in gentle rotating water bath for 30 minutes. Final concentration of test sample was 10% of working stock solution.
Total hemolysis samples of 1,% and 10% whole blood samples in deionized water were prepared as follows:
The samples were freeze thawed 3× in liquid nitrogen then wafer bath. The samples were then centrifuged 10 minutes at 1500 RPM. Next, 100 uL of supernatant was transferred to a cuvette and 1 mL deionized water was added. The absorbance was read at 550 nm vs. water blank.
H10 and H50 were calculated by graphing Percent Total Hemolysis vs. Test Sample Concentration. The Percent Total Henolysis=(average o.d of test sample)/(average o.d. of total hemolysis sample)×100

Row | Structure (SMILES) | platelet aggregation response (in words) [1] | Relative Platelet Aggregation (Ohms) ([1]; 25 μM) | Relative Platelet Aggregation (Ohms) ([1]; 100 μM) | Relative Platelet Aggregation (Ohms) ([1]; 400 μM) | Relative Platelet Aggregation (Ohms) ([1]; 800 μM) | GI50 [2] [µM] | GI50 [3] | GI50 [4] [µM] | GI50 [5] [µM] | GI50 [6] [µM] | Platelet aggregation [7] | platelet aggregation response (in words) [7] | % L-ET18OCH3 (DEVDase, 6 hrs) ([8]; 10 μM ether lipid) [%] | % L-ET18OCH3 (DEVDase, 6 hrs) ([8]; 20 μM ether lipid) [%] | % L-ET18OCH3 (DEVDase, 6 hrs) ([8]; 30 μM ether lipid) [%] | GI50 [9] [µM] | GI50 [10] [µM] | H50 [11]
1 | CCCCCCCCCCCCCCCCCCOC[C@@H](N)COP(=O)([O-])OCC[N+](C)(C)C [9(R)] | clear platelet aggregation response; also recorded: elicited a platelet aggregation response | 8 | 16 | 10 | 0 |  |  |  |  |  |  |  |  |  |  |  |  | 
2 | CCCCCCCCCCCCCCCCCCOCC(COP(=O)([O-])OCC[N+](C)(C)C)OC [L-ET18OCH3, 1-O-octadecyl-2-O-methyl-glycerophosphocholine, reference compound] |  |  |  |  |  | 9.7 to 18.6 | 5.5 µM and 6 µM | ≥ 25.7 | 6.5 to 9.1 | 10 to 12.8 | +++ | elicits a platelet-aggregation response | 100 ± 8.8 | 100 ± 10.4 | 100 ± 9.3 | 46.6 | 1 to 1.5 | 2000, >2000 μM
